For one assay, the target named is NAMPT (Homo sapiens (Human), UniProt P43490). Nature of the assay: NAMPT biochemical inhibition assay (NMN quantified by mass spectrometry). The settings on record: NAMPT biochemical inhibition; read-out: Biochem IC50.
Another assay relates to A2780 cells. Nature of the assay: In-vitro cell proliferation assay (SRB), A2780 cells.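 Also: viable cell number read as SRB absorbance, background from media-only wells subtracted, IC50 interpolated from percent inhibition at two bracketing compound concentrations.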 The settings on record: Homo sapiens, A2780, 72 h, A2780 cells, 72 hours, SRB; read-out: A2780 IC50. Type of assay: cell-based.

Each structure is given as a SMILES string.

Chain of NAMPT (P43490 whole entry): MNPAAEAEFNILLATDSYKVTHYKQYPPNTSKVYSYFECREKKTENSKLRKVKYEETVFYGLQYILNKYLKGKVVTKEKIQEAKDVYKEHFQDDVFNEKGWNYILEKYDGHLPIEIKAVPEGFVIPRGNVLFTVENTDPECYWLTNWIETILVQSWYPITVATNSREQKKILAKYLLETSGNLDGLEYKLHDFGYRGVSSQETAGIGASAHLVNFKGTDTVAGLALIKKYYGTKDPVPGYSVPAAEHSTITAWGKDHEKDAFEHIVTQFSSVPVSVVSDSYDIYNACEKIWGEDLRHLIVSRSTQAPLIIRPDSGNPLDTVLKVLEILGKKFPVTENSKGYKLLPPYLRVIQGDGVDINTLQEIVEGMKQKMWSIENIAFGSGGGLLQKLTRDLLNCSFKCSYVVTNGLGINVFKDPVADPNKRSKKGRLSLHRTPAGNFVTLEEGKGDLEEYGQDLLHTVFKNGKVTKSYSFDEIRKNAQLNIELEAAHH

For the molecule `Cc1ccc(NS(=O)(=O)c2ccc(NC(=O)NCc3cccnc3)cc2)c(Cl)c1` [3-{4-[(2-chloro-4-methylphenyl)sulfamoyl]phenyl}-1-(pyridin-3-ylmethyl)urea], the concentration for half-maximal inhibition (IC50) – broadly, the concentration that inhibits the measured activity by half – on NAMPT was 0.001 µM; with A2780 cells it was 0.032 µM.
The like results for `O=C(NCc1cccnc1)Nc1ccc(S(=O)(=O)c2ccc(-n3cccn3)cc2)cc1` [1-(4-{[4-(1H-pyrazol-1-yl)benzene]sulfonyl}phenyl)-3-(pyridin-3-ylmethyl)urea] were, in that order, 0.0055 µM and 0.055 µM.
Taken in the same sequence, the figures for `O=C(NCc1cccnc1)Nc1ccc(S(=O)(=O)Nc2cccc(C(=O)c3ccccc3)c2)cc1` [1-{4-[(3-benzoylphenyl)sulfamoyl]phenyl}-3-(pyridin-3-ylmethyl)urea] were 0.0044 µM and 1 to 10 µM.
Turning to `CC(NC(=O)Nc1ccc(S(=O)(=O)N2CCCCC2)cc1)c1cccnc1` (stereo not drawn) [3-[4-(piperidine-1-sulfonyl)phenyl]-1-[1-(pyridin-3-yl)ethyl]urea], the IC50 on NAMPT is 22.1 µM; with A2780 cells, above 30 µM.
The like results for `COc1ccc(NS(=O)(=O)c2ccc(NC(=O)NCc3cccnc3)cc2)c(OC)c1` [3-{4-[(2,4-dimethoxyphenyl)sulfamoyl]phenyl}-1-(pyridin-3-ylmethyl)urea] were, in that order, 0.003 µM and 0.109 µM.
Taken in the same sequence, the figures for `Cc1ccc(S(=O)(=O)c2ccc(NC(=O)NCc3cccnc3)cc2)c(F)c1` [3-{4-[(2-fluoro-4-methylbenzene)sulfonyl]phenyl}-1-(pyridin-3-ylmethyl)urea] were 0.002 µM and 0.517 µM.
The like results for `CN1CCCC2(CCCN(S(=O)(=O)c3ccc(NC(=O)NCc4cccnc4)cc3)C2)C1` (stereo not drawn) [3-(4-{8-methyl-2,8-diazaspiro[5.5]undecane-2-sulfonyl}phenyl)-1-(pyridin-3-ylmethyl)urea] were, in that order, 0.001 µM and 0.001 µM.
In the case of `O=C(NCc1cccnc1)Nc1ccc(S(=O)(=O)c2ccccc2)nc1` [1-[6-(benzenesulfonyl)pyridin-3-yl]-3-(pyridin-3-ylmethyl)urea], the results for the concentration for half-maximal inhibition (IC50) on NAMPT and with A2780 cells were 0.015 µM and 2.36 µM, respectively.
As to `O=C(NCc1cccnc1)Nc1ccc(S(=O)(=O)N2CCCC(CN3CCCC3=O)C2)cc1` (stereo not drawn) [1-(4-{3-[(2-oxopyrrolidin-1-yl)methyl]piperidine-1-sulfonyl}phenyl)-3-(pyridin-3-ylmethyl)urea], the IC50 at NAMPT was found to be 0.003 µM; with A2780 cells, 0.143 µM.
Taken in the same sequence, the figures for `C[C@H](O)c1cccc(NS(=O)(=O)c2ccc(NC(=O)NCc3cccnc3)cc2)c1` [3-[4-({3-[(1S)-1-hydroxyethyl]phenyl}sulfamoyl)phenyl]-1-(pyridin-3-ylmethyl)urea] were 0.007 µM and 0.164 µM.
`Cc1cc(Cl)ccc1S(=O)(=O)c1ccc(NC(=O)NCc2cccnc2)cc1` [3-{4-[(4-chloro-2-methylbenzene)sulfonyl]phenyl}-1-(pyridin-3-ylmethyl)urea]: the results for the 50% inhibitory concentration (IC50) at NAMPT and in the assay with A2780 cells were 0.006 µM and 0.755 µM, respectively.
The like results for `O=C(NCc1cccnc1)Nc1ccc(S(=O)(=O)c2cccnc2)cc1` [3-(pyridin-3-ylmethyl)-1-[4-(pyridine-3-sulfonyl)phenyl]urea] were, in that order, 0.005 µM and 0.595 µM.
Consider `Cc1ccc(S(=O)(=O)c2ccc(NC(=O)NCc3cccnc3)cc2)cc1` [3-{4-[(4-methylbenzene)sulfonyl]phenyl}-1-(pyridin-3-ylmethyl)urea], for which the IC50 was determined as 0.00433 µM on NAMPT and 0.141 µM in the assay with A2780 cells.
Consider `O=C(NCc1cccnc1)Nc1ccc(S(=O)(=O)c2cccc(C(=O)N3CCOCC3)c2)cc1` [1-[4-({3-[(morpholin-4-yl)carbonyl]benzene}sulfonyl)phenyl]-3-(pyridin-3-ylmethyl)urea], for which the 50% inhibitory concentration (IC50) was 0.005 µM at NAMPT and 0.1 to 1 µM with A2780 cells.
The like results for `COc1ccc(Cl)cc1S(=O)(=O)c1ccc(NC(=O)NCc2cccnc2)cc1` [3-{4-[(5-chloro-2-methoxybenzene)sulfonyl]phenyl}-1-(pyridin-3-ylmethyl)urea] were, in that order, 0.005 µM and 0.021 µM.
The like results for `O=C(NCc1cccnc1)Nc1ccc(S(=O)(=O)N2CCN(c3ncccc3Cl)CC2)cc1` [3-{4-[4-(3-chloropyridin-2-yl)piperazine-1-sulfonyl]phenyl}-1-(pyridin-3-ylmethyl)urea] were, in that order, 0.001 µM and 0.018 µM.
Taken in the same sequence, the figures for `CC(C)c1ccc(S(=O)(=O)c2ccc(NC(=O)NCc3cccnc3)cc2)cc1` [3-(4-{[4-(propan-2-yl)benzene]sulfonyl[phenyl)-1-(pyridin-3-ylmethyl)urea] were 0.003 µM and 0.1 to 1 µM.
On to `C[C@@H]1[C@H]2C[C@@H](C[C@H]1NS(=O)(=O)c1ccc(NC(=O)NCc3cccnc3)cc1)C2(C)C` [1-(pyridin-3-ylmethyl)-3-(4-{[(1R,2R,3R,5S)-2,6,6-trimethylbicyclo[3.1.1]heptan-3-yl]sulfamoyl}phenyl)urea], for which the IC50 stood at 0.08 µM on NAMPT and 0.091 µM in the assay with A2780 cells.
As to `C[C@@H](c1ccccc1)N(C)S(=O)(=O)c1ccc(NC(=O)NCc2cccnc2)cc1` [3-(4-{methyl[(1S)-1-phenylethyl]sulfamoyl}phenyl)-1-(pyridin-3-ylmethyl)urea], the IC50 is 0.001 µM on NAMPT and 0.008 µM in the assay with A2780 cells.
The like results for `COc1ccc(S(=O)(=O)c2ccc(NC(=O)NCc3cccnc3)cc2)cc1OC` [3-{4-[(3,4-dimethoxybenzene)sulfonyl]phenyl}-1-(pyridin-3-ylmethyl)urea] were, in that order, 0.005 µM and 0.017 µM.
The like results for `O=C(Nc1ccncc1)c1ccc(S(=O)(=O)c2ccccc2)cc1` [4-(benzenesulfonyl)-N-(pyridin-4-yl)benzamide] were, in that order, 0.651 µM and 1.31 µM.
The like results for `COc1ccc(C)cc1S(=O)(=O)c1ccc(NC(=O)NCc2cccnc2)cc1` [3-{4-[(2-methoxy-5-methylbenzene)sulfonyl]phenyl}-1-(pyridin-3-ylmethyl)urea] were, in that order, 0.004 µM and 0.007 µM.
With `CNC(=O)c1ccccc1NS(=O)(=O)c1ccc(NC(=O)NCc2cccnc2)cc1` [N-methyl-2-[(4-{[(pyridin-3-ylmethyl)carbamoyl]amino}benzene)sulfonamido]benzamide], the IC50 was 0.001 µM at NAMPT and 0.011 µM in the assay on A2780 cells.
The like results for `Cc1cc(C(F)(F)F)ccc1S(=O)(=O)c1ccc(NC(=O)NCc2cccnc2)cc1` [3-(4-{[2-methyl-4-(trifluoromethyl)benzene]sulfonyl}phenyl)-1-(pyridin-3-ylmethyl)urea] were, in that order, 0.0118 µM and 0.1 to 1 µM.
Turning to `COc1cccc(F)c1S(=O)(=O)c1ccc(NC(=O)NCc2cccnc2)cc1` [3-{4-[(2-fluoro-6-methoxybenzene)sulfonyl]phenyl}-1-(pyridin-3-ylmethyl)urea], the values for the IC50 at NAMPT and in the assay on A2780 cells were 0.002 µM and 0.01 µM, respectively.
For `CCc1cccc(S(=O)(=O)c2ccc(NC(=O)NCc3cccnc3)cc2)c1` [3-{4-[(3-ethylbenzene)sulfonyl]phenyl}-1-(pyridin-3-ylmethyl)urea], the IC50 came out at 0.002 µM on NAMPT and 0.0708 µM with A2780 cells.
`COc1ccc(S(=O)(=O)c2ccc(NC(=O)NCc3cccnc3)cc2)cn1` [3-[4-(6-methoxypyridine-3-sulfonyl)phenyl]-1-(pyridin-3-ylmethyl)urea]: the figures for the half-maximal inhibitory concentration (IC50) on NAMPT and in the assay on A2780 cells were 0.005 µM and 0.1 to 1 µM, respectively.

The values are drawn from patent US11279687B2, “Compounds and compositions for the inhibition of NAMPT” (Valo Health, Inc., priority 2010, dated 2022).
